Patent US7494997B2, “Amide derivative” (Nippon Shinyaku Co., Ltd., priority 2002, dated 2009)
Read-outs that look alike come from different tables or passages of the source.

Assays:
K562 cells = assay: Cell growth inhibitory effect, K562 cells (WST-8, 72 hours); conditions: for IC50: read-out: K562 cells (IC50 value: μM); for Ratio (U937 cells/K562 cells): ratio of IC50 values U937 cells/K562 cells
U937 cells = assay: Cell growth inhibitory effect, U937 cells (WST-8, 72 hours); conditions: Homo sapiens, U-937, 72 h, read-out: U937 cells (IC50 value: μM)
[1] = BCR-ABL positive K562 cells, 72 hours, cell growth inhibition

melting point | IC50 (K562 cells; Homo sapiens, K562, 72 h) [µM] | IC50 (U937 cells) [µM] | IC50 (K562 cells; [1]) [µM] | Compound | Ratio (U937 cells/K562 cells) (K562 cells)
184 to 186 °C (dec.) | – | – | – | Cc1ccc(NC(=O)c2ccc(CN3CCN(C)CC3)c(Br)c2)cc1Nc1nccc(-c2cncnc2)n1.Cl | –
184 to 187 °C | – | – | – | Cc1ccc(NC(=O)c2ccc(CN3CCN(C)CC3)c(C(F)(F)F)c2)cc1Nc1nccc(-c2cncc(Br)c2)n1.Cl | –
139 to 141 °C | – | – | – | Cc1ccc(NC(=O)c2ccc(CN3CCN(C)CC3)c(Br)c2)cc1Nc1cncc(-c2cccnc2)c1 (hydrate or solvate) [Example 17, 3-bromo-4-(4-methylpiperazin-1-ylmethyl)-N-{4-methyl-3-[3-(3-pyridyl)pyridin-5-ylamino]phenyl}benzamide] | –
192 to 193 °C | – | – | – | Cc1ccc(NC(=O)c2ccc(CN3CCN(C)CC3)c(Br)c2)cc1Nc1cncc(-c2cccnc2)n1 (hydrate or solvate) [Example 19, 3-bromo-4-(4-methylpiperazin-1-ylmethyl)-N-{4-methyl-3-[2-(3-pyridyl)pyrazin-6-ylamino]phenyl}benzamide] | –
219 to 221 °C | – | – | – | Cc1ccc(NC(=O)c2ccc(CN3CCN(C)CC3)c(Br)c2)cc1Nc1nncc(-c2cccnc2)n1 (hydrate or solvate) [Example 20, 3-bromo-4-(4-methylpiperazin-1-ylmethyl)-N-{4-methyl-3-[5-(3-pyridyl)-1,2,4-triazin-3-ylamino]phenyl}benzamide] | –
184 to 186 °C | – | – | – | Cc1ccc(NC(=O)c2ccc(CN3CCN(C)CC3)c([N+](=O)[O-])c2)cc1Nc1nccc(-c2cccnc2)n1 (hydrate or solvate) [Example 22, 4-(4-methylpiperazin-1-ylmethyl)-3-nitro-N-{4-methyl-3-[4-(3-pyridyl)pyrimidin-2-ylamino]phenyl}benzamide] | –
202 to 203 °C | – | – | – | CCN1CCN(Cc2ccc(C(=O)Nc3ccc(C)c(Nc4nccc(-c5cccnc5)n4)c3)cc2Br)CC1 (hydrate or solvate) [Example 27, 3-bromo-4-(4-ethylpiperazin-1-ylmethyl)-N-{4-methyl-3-[4-(3-pyridyl)pyrimidin-2-ylamino]phenyl}benzamide] | –
219 to 222 °C (dec.) | – | – | – | Cc1ccc(NC(=O)c2ccc(CN3CCN(C)CC3)c(Br)c2)cc1Nc1nccc(-c2ccc(Cl)nc2)n1 [Example 8, 3-bromo-4-(4-methylpiperazin-1-ylmethyl)-N-{3-[4-(6-chloropyridin-3-yl)pyrimidin-2-ylamino]-4-methylphenyl}benzamide] | –
185 to 187 °C (dec.) | – | – | – | Cc1ccc(NC(=O)c2ccc(CN3CCN(C)CC3)c(Br)c2)cc1Nc1nccc(-c2cccnn2)n1 [Example 12, 3-bromo-4-(4-methylpiperazin-1-ylmethyl)-N-{4-methyl-3-[4-(3-pyridazinyl)pyrimidin-2-ylamino]phenyl}benzamide] | –
244 to 245 °C (dec.) | 0.003 | > 10 | – | Cc1ccc(NC(=O)c2ccc(CN3CCN(C)CC3)c(Br)c2)cc1Nc1cc(-c2cccnc2)ccn1 [Example 14, 3-bromo-4-(4-methylpiperazin-1-ylmethyl)-N-{4-methyl-3-[4-(3-pyridyl)pyridin-2-ylamino]phenyl}benzamide] | >3333.3
244 to 246 °C (dec.) | 0.0048 | 9.1 | – | Cc1ccc(NC(=O)c2ccc(CN3CCN(C)CC3)c(Br)c2)cc1Nc1cc(-c2cncnc2)ccn1 [Example 15, 3-bromo-4-(4-methylpiperazin-1-ylmethyl)-N-{4-methyl-3-[4-(5-pyrimidinyl)pyridin-2-ylamino]phenyl}benzamide] | 1895.8
174 to 175 °C | – | – | – | Cc1ccc(NC(=O)c2ccc(CN3CCN(C)CC3)c(Br)c2)cc1Nc1cccc(-c2cccnc2)c1 [Example 18, 3-bromo-4-(4-methylpiperazin-1-ylmethyl)-N-{4-methyl-3-[3-(3-pyridyl)phenylamino]phenyl}benzamide] | –
– | 0.06 | 2.4 | – | Cc1ccc(NC(=O)c2ccc(CN3CCN(C)CC3)c(Br)c2)cc1Nc1cncc(-c2cccnc2)n1 [Example 19, 3-bromo-4-(4-methylpiperazin-1-ylmethyl)-N-{4-methyl-3-[2-(3-pyridyl)pyrazin-6-ylamino]phenyl}benzamide] | 40.0
– | 0.015 | 1.82 | – | Cc1ccc(NC(=O)c2ccc(CN3CCN(C)CC3)c(Br)c2)cc1Nc1nncc(-c2cccnc2)n1 [Example 20, 3-bromo-4-(4-methylpiperazin-1-ylmethyl)-N-{4-methyl-3-[5-(3-pyridyl)-1,2,4-triazin-3-ylamino]phenyl}benzamide] | 121.3
192 to 193 °C | 0.0053 | > 10 | – | Cc1cc(C(=O)Nc2ccc(C)c(Nc3nccc(-c4cccnc4)n3)c2)ccc1CN1CCN(C)CC1 [Example 21, 3-methyl-4-(4-methylpiperazin-1-ylmethyl)-N-{4-methyl-3-[4-(3-pyridyl)pyrimidin-2-ylamino]phenyl}benzamide] | >1886.8
– | 0.0032 | 6.56 | – | Cc1ccc(NC(=O)c2ccc(CN3CCN(C)CC3)c([N+](=O)[O-])c2)cc1Nc1nccc(-c2cccnc2)n1 [Example 22, 4-(4-methylpiperazin-1-ylmethyl)-3-nitro-N-{4-methyl-3-[4-(3-pyridyl)pyrimidin-2-ylamino]phenyl}benzamide] | 2050.0
171 to 172 °C (dec.) | 0.0094 | > 10 | – | COc1cc(C(=O)Nc2ccc(C)c(Nc3nccc(-c4cccnc4)n3)c2)ccc1CN1CCN(C)CC1 [Example 23, 3-methoxy-4-(4-methylpiperazin-1-ylmethyl)-N-{4-methyl-3-[4-(3-pyridyl)pyrimidin-2-ylamino]phenyl}benzamide] | >1063.8
227 to 229 °C | 0.0015 | 7.29 | – | Cc1ccc(NC(=O)c2cc(Br)c(CN3CCN(C)CC3)c(Br)c2)cc1Nc1nccc(-c2cccnc2)n1 [Example 24, 3,5-dibromo-4-(4-methylpiperazin-1-ylmethyl)-N-{4-methyl-3-[4-(3-pyridyl)pyrimidin-2-ylamino]phenyl}benzamide] | 4860.0
210 to 214 °C (dec.) | – | – | – | Cc1ccc(NC(=O)c2ccc(CN3CCN(C)CC3)c(C(=O)N(C)C)c2)cc1Nc1nccc(-c2cccnc2)n1 [Example 26, 3-(N,N-dimethylcarbamoyl)-4-(4-methylpiperazin-1-ylmethyl)-N-{4-methyl-3-[4-(3-pyridyl)pyrimidin-2-ylamino]phenyl}benzamide] | –
– | 0.00049 | 7.16 | – | CCN1CCN(Cc2ccc(C(=O)Nc3ccc(C)c(Nc4nccc(-c5cccnc5)n4)c3)cc2Br)CC1 [Example 27, 3-bromo-4-(4-ethylpiperazin-1-ylmethyl)-N-{4-methyl-3-[4-(3-pyridyl)pyrimidin-2-ylamino]phenyl}benzamide] | 14612.2
158 to 159 °C | – | – | – | Cc1ccc(NC(=O)c2ccc(CN3CCCCC3)c(Br)c2)cc1Nc1nccc(-c2cccnc2)n1 [Example 32, 3-bromo-4-(piperidinomethyl)-N-{4-methyl-3-[4-(3-pyridyl)pyrimidin-2-ylamino]phenyl}benzamide] | –
204 to 205 °C | – | – | – | Cc1ccc(NC(=O)c2ccc(CN3C[C@@H](C)N[C@@H](C)C3)c(Br)c2)cc1Nc1nccc(-c2cccnc2)n1 [Example 34, 3-bromo-4-(cis-3,5-dimethylpiperazin-1-ylmethyl)-N-{4-methyl-3-[4-(3-pyridyl)pyrimidin-2-ylamino]phenyl}benzamide] | –
– | – | – | 0.0041 | Cc1ccc(NC(=O)c2ccc(CN3CCNCC3)c(Br)c2)cc1Nc1nccc(-c2cncnc2)n1 [Example 36, 3-bromo-4-(1-piperazinylmethyl)-N-{4-methyl-3-[4-(5-pyrimidinyl)pyrimidin-2-ylamino]phenyl}benzamide] | –
– | – | – | 0.00093 | Cc1ccc(NC(=O)c2ccc(CN3CCNCC3)c(C(F)(F)F)c2)cc1Nc1nccc(-c2cncnc2)n1 [Example 38, 4-(1-piperazinylmethyl)-3-trifluoromethyl-N-{4-methyl-3-[4-(5-pyrimidinyl)pyrimidin-2-ylamino]phenyl}benzamide] | –

Compound | melting point | IC50 (K562 cells; Homo sapiens, K562, 72 h) [µM] | IC50 (U937 cells) [µM] | IC50 (K562 cells; [1]) [µM] | Ratio (U937 cells/K562 cells) (K562 cells)
CS(=O)(=O)O.Cc1ccc(NC(=O)c2ccc(CN3CCN(C)CC3)c(C(F)(F)F)c2)cc1Nc1nccc(-c2cncnc2)n1 | 171 to 173 °C | – | – | – | –
Cc1ccc(NC(=O)c2ccc(CN3CCN(C)CC3)c(Br)c2)cc1Nc1nccc(-c2cccnc2)n1 [Example 1, 3-bromo-4-(4-methylpiperazin-1-ylmethyl)-N-{4-methyl-3-[4-(3-pyridyl)pyrimidin-2-ylamino]phenyl}benzamide] | 202 to 203 °C (dec.) | 0.0022 | 4.8 | – | –
Cc1ccc(NC(=O)c2ccc(CN3CCN(C)CC3)c(F)c2)cc1Nc1nccc(-c2cccnc2)n1 [Example 4, 3-fluoro-4-(4-methylpiperazin-1-ylmethyl)-N-{4-methyl-3-[4-(3-pyridyl)pyrimidin-2-ylamino]phenyl}benzamide] | 197 to 199 °C (dec.) | 0.033 | 12.4 | – | –
Cc1ccc(NC(=O)c2ccc(CN3CCN(C)CC3)c(C(F)(F)F)c2)cc1Nc1nccc(-c2cccnc2)n1 [Example 5, 4-(4-methylpiperazin-1-ylmethyl)-3-trifluoromethyl-N-{4-methyl-3-[4-(3-pyridyl)pyrimidin-2-ylamino]phenyl}benzamide] | 182 to 183 °C (dec.) | 0.0008 | 3.99 | – | –
Cc1ccc(NC(=O)c2ccc(CN3CCN(C)CC3)c(C(F)(F)F)c2)cc1Nc1nccc(-c2cncnc2)n1 [Example 6, 4-(4-methylpiperazin-1-ylmethyl)-3-trifluoromethyl-N-{4-methyl-3-[4-(5-pyrimidinyl)pyrimidin-2-ylamino]phenyl}benzamide] | 231 to 233 °C (dec.) | 0.0005 | 5.39 | – | –
